Measurements published in patent US6838237B2, “Antigenically reactive regions of the hepatitis a virus polyprotein” (The United States of America as represented by the …, priority 1996, dated 2005).
Where “and” joins values, the source holds several entries; their conditions need not be identical. Equal values may be shown once.

How the values were obtained:
[1] = test system: anti-HAV-negative sera; experiment: EIA for anti-HAV: synthetic peptides reacted with anti-HAV-negative sera; assay type: binding, human; conditions: experiment 1: sera 1:100, cutoff P/N 3.0
Excerpt: (§1) All anti-HAV-positive and anti-HAV-negative sera were randomly selected from a collection reposited at the Centers for Disease Control and Prevention, Atlanta, Ga. Serum specimens were collected from anti-HAV-positive patients with acute liver disease. Anti-HAV-negative serum specimens were collected from normal blood donors. All sera were initially tested by commercially available kit for the presence of anti-HAV activity (HAVAB and HAVAB-M, Abbott Laboratories, Abbott Park, Ill.)
(§2) Synthetic peptides (110 ml) at a concentration of 10 mg/ml in 0.1 M phosphate-buffered saline (PBS), pH 7.5, were adsorbed to microtiter wells (Immulon II, Dynatech Laboratories, Inc.) at room temperature for 12 h. Sera were diluted in PBS containing 0.1% Tween 20 and 10% normal goat serum (PBS-T) and 100 ml were added to each well, incubated for 60 min at 37E C, and washed with PBS containing Tween-20. […] Two different cutoffs were established for experiments 1 and 2. In experiment 1, the cutoff, expressed as a P/N ratio and equal to 3.0, was statistically established as the mean of negative controls plus at least 3.5 standard deviations (SD) above the mean, where P represents the optical density value at 493 nm (OD493) of anti-HAV-positive specimens and N represents the optical density value of negative controls. In experiment 2, a different cutoff was used to ensure statistical reliability and accurate interpretation of positive results. In this case, in addition to anti-HAV-negative sera, two irrelevant synthetic peptides were used as supplemental negative controls to determine the degree of nonspecific binding of anti-HAV sera to synthetic peptides. One cutoff, expressed as a P/N ratio and equal to 3.0, corresponded to the mean of negative serum controls plus at least 3.5 SD above the mean. A second cutoff was also expressed as a P/N ratio, where P represents the optical density value at 493 nm (OD493) for HAV peptides immunoreacting with anti-HAV-positive specimens and N represents the optical density value obtained with the irrelevant peptides. The second cutoff was equal 2.0 and corresponded to the mean of OD values obtained with the irrelevant peptides plus at least 3.5 SD above the mean. Synthetic peptides were considered immunoreactive with anti-HAV serum specimens only when both cutoffs were satisfied.

[2] = test system: anti-HAV-positive sera; experiment: EIA for anti-HAV: synthetic peptides adsorbed to wells, reacted with anti-HAV-positive acute sera; assay type: binding, human; conditions: for Reactivity with acute sera (reactive/tested): experiment 1: sera 1:100, anti-human IgG-HRP, cutoff P/N 3.0; for Reactivity with acute sera (percent of sera reactive): experiment 1: sera 1:100, cutoff P/N 3.0; for P/N for acute sera (mean) / P/N for acute sera (range, in parentheses): OD493 positive/negative ratio of reactive sera
Excerpt: as §1, §2

Sequence | Reactivity with negative sera (reactive/tested) [1] | Reactivity with acute sera (reactive/tested) [2] | Reactivity with acute sera (percent of sera reactive) [2] [%] | P/N for acute sera (mean) ([2]; experiment 1) | P/N for acute sera (range, in parentheses) ([2]; experiment 1) | immunoreactivity with anti-HAV-positive sera (in words) [2] | P/N for acute sera (individual values) ([2]; experiment 1, single sera listed with semicolon) | percent of (IgM) anti-HAV-positive sera immunoreactive with peptide [2]
LGMTATSADKNVPQLKPVSE [YK-1429] | 0/27 | 5/41 | 12.2 | 10.25 | (4.92-27.38) |  |  | 
VKPASFFKNPHNDMLNVNLA [YK-1362] | 0/41 | 6/41 | 14.6 | 7.82 | (3.4-18.05) |  |  | 
LSFSCYLSVTEQSEFYFPRA [YK-1307] | 0/51 | 6/48 | 12.5 | 5.88 | (4.17-7.64) |  |  | 
SKTRAIDACPLDYSILCRMY [YK-1412] | 2/27 | 10/41 | 24.4 | 6.04 | (3.4-15.15) |  |  | 
EVGSHQVEPLRTSVDKPGSK [YK-1210] | 0/48 | 15/46 | 32.6 | 7.31 | (3.93-20.47) |  |  | 
AKKVPETFPELKPGESRHTS [YK-1273] | 3/48 | 19/46 | 41.3 | 5.15 | (3.15-8.58) | broad and strong antigenic reactivity |  | 
HFLCTFTFNSNNKEYTFPIT [YK-1279] | 1/46 | 7/41 | 17.1 | 3.43 | (3.11-3.67) |  |  | 
KVNFPHGMLDLEEIAANSKD [YK-1327] | 1/51 | 15/48 | 31.3 | 6.16 | (3.28-9.76) |  |  | 
DHMSIYKFMGRSHFLCTFTF [YK-1276] | 0/46 | 17/41 | 41.5 | 4.38 | (3.15-5.62) | broad and strong antigenic reactivity |  | 
VIQQLNQDEHSHIIGLLRVM [YK-1334] | 2/51 | 5/48 | 10.4 | 4.27 | (3.16-5.27) | marginally immunoreactive |  | 
LYNEQFAVQGLLRYHTYARF [YK-1215] | 0/46 | 10/41 | 24.4 | 5.29 | (3.41-8.83) | not found immunoreactive |  | 
NPSPKTVYVKEAIDRRLHFK [YK-1360] | 0/46 | 4/41 | 9.8 | 4.08 | (3.68-4.71) |  |  | 
EDPVLAKKVPETFPELKPGE [YK-1272] | 1/46 | 6/41 | 14.6 | 5.4 | (4.87-6.12) |  |  | 
KCITALASICQMFCFWRGDL [YK-1247] | 0/48 | 9/46 | 19.6 | 3.96 | (3.06-4.49) |  |  | 
DKPGSKKTQGEKFFLIHSAD [YK-1212] | 0/46 | 3/41 | 7.3 | 3.5 | (3.04-3.96) |  |  | 
QRLKYAQEELSNEVLPPPRK [YK-1317] | 1/66 | 55/66 | 83.3 | 19.35 | (3.47-125.8) |  |  | 

Sequence | Reactivity with negative sera (reactive/tested) [1] | Reactivity with acute sera (reactive/tested) [2] | Reactivity with acute sera (percent of sera reactive) [2] [%] | P/N for acute sera (mean) ([2]; experiment 1) | P/N for acute sera (range, in parentheses) ([2]; experiment 1) | immunoreactivity with anti-HAV-positive sera (in words) [2] | P/N for acute sera (individual values) ([2]; experiment 1, single sera listed with semicolon) | percent of (IgM) anti-HAV-positive sera immunoreactive with peptide [2]
DLDFSAFDASLSPFMIREAG [YK-1419] | 1/27 | 5/41 | 12.2 | 5.27 | (3.98-8.49) |  |  | 
FPELKPGESRHTSDHMSIYK [YK-1274] | 1/48 | 9/46 | 19.6 | 5.31 | (3.0-8.47) |  |  | 
MLSKYSLPIVEEPEDYKEAS [YK-1399] | 1/27 | 5/41 | 12.2 | 6.86 | (4.05-16.46) |  |  | 
RIMKVEFTQCSMNVVSKTLF [YK-1394] | 3/27 | 13/41 | 31.7 | 6.98 | (4.05-12.93) |  |  | 
TPVGLAVDTPWVEKESALSI [YK-1290] | 1/51 | 6/48 | 12.5 | 4.48 | (3.0-6.44) |  |  | 
INPTPFQQGGLICAMVPGDQ [YK-1217] | 0/46 | 4/41 | 9.8 | 4.03 | (3.94-4.12) |  |  | 
GLVRKNLVQFGVGEKNGCVR [YK-1376] | 0/27 | 3/41 | 7.3 | 6.71 | (3.8-12.77) |  |  | 
GQKIVDEFKKLGMTATSADK [YK-1428] | 0/27 | 1/41 | 2.4 | 7.28 |  |  |  | 
MSRIAAGDLESSVDDPRSEE [YK-1312] | 2/51 | 13/48 | 27.1 | 8.7 | (4.44-25.9) |  |  | 
PLNSNAMLSTESMMSRIAAG [YK-1310] | 0/51 | 3/48 | 6.3 |  |  |  | 3.68 and 5.23 | 
AGDLESSVDDPRSEEDKRFE [YK-1313] | 3/51 | 18/48 | 37.5 | 15.79 | (3.0-108.06) | broad and strong antigenic reactivity |  | 
VSGCPMRLNMASLEEKGRHF [YK-1356] | 0/51 | 8/48 | 16.7 | 5.49 | (3.36-10.96) |  |  | 
FPTKYHSGRLLFCFVPGNEL [YK-1250] | 0/48 | 17/46 | 37.0 | 5.68 | (3.4-7.92) | broadly and strongly immunoreactive |  | 
SAVAEFFQSFPSGEPSNSKLSGFFQ [YK-1832] |  |  |  |  |  |  |  | about 86.0%
WLNPKKINLADRMLGLSGVQEIKEQ [YK-1757] |  |  |  |  |  | very strong antigenically reactive |  | 
QRLKYAQEELSNEVLPPPRKMKGLF [YK-1665] |  |  |  |  |  | greater immunoreactivity than Peptide No. YK-1317 |  | 
